Data: US12729377B2, “RNAi agents and compositions for inhibiting expression of angiopoietin-like 3 (ANGPTL3), and methods of use” (Arrowhead Pharmaceuticals, Inc., priority 2017, dated 2026)
In the oligonucleotide strings, read from the 5' end, every base follows the letter of its sugar. An asterisk marks phosphorothioate; unmarked linkages are phosphodiester. Other units and linkages are bracketed, terminal groups are in braces. A string of capitals states the bases alone. {NAG37} = tridentate N-acetyl-galactosamine targeting ligand, structure (NAG37)s; [invAb] = inverted abasic unit; m = 2'-O-methyl; f = 2'-fluoro

Legend:
Assay type in all cases: in vivo, cynomolgus macaque (Macaca fascicularis)
ANGPTL3 protein [1] = test: Example 8: serum ANGPTL3 protein by ELISA in cynomolgus monkeys; details: for Avg ANGPTL3 protein normalized to pre-treatment: 3.0 mg/kg single SC injection day 1, cynos, n=2
Protocol: (§1) Additional ANGPTL3 RNAi agents were evaluated in cynomolgus monkeys. On day 1, cynomolgus macaque (Macaca fascicularis) primates (also referred to herein as “cynos”) were administered a single subcutaneous injection of 0.3 mL/kg (approximately 1-2 mL volume, depending on animal mass) containing 3.0 mg/kg of one of ANGPTL3 RNAi agent AD05577, AD05307, AD05488, AD05654, or AD05659, each formulated in saline.
(§2) Two (2) cynos in each group were tested (n=2). Blood samples were drawn and serum samples were analyzed on days −8 (pre-dose), 1 (pre-dose), 8, 15, 22, 29, and 36. Cynos were fasted overnight prior to each collection. ANGPTL3 protein levels in serum were measured by ELISA assay (R&D Systems), according to the manufacturer's recommendations. Triglycerides, total cholesterol, high-density lipoprotein (HDL), and low-density lipoprotein (LDL) in serum were measured on a Cobas® Integra 400 (Roche Diagnostics), according to the manufacturer's recommendations.
(§3) The ANGPTL3 protein levels, triglyceride levels, total cholesterol levels, HDL levels, and LDL levels for each animal were normalized. For normalization, the level of ANGPTL3 protein, triglyceride, HDL, and total cholesterol, respectively, for each animal at a time point, was divided by the average pre-treatment level of expression in that animal (in this case at days −8, and 1 (pre-dose)) to determine the ratio of expression “normalized to pre-treatment.”

ANGPTL3 gene [2] = test: Example 8: serum HDL in cynomolgus monkeys; details: 3.0 mg/kg single SC injection day 1, cynos, n=2
Protocol: as §1, §2, §3

ANGPTL3 gene [3] = test: Example 8: serum LDL in cynomolgus monkeys; details: 3.0 mg/kg single SC injection day 1, cynos, n=2
Protocol: as §1, §2, §3

ANGPTL3 gene [4] = test: Example 8: serum triglycerides in cynomolgus monkeys; details: 3.0 mg/kg single SC injection day 1, cynos, n=2
Protocol: as §1, §2, §3

ANGPTL3 gene [5] = test: Example 8: serum total cholesterol in cynomolgus monkeys; details: 3.0 mg/kg single SC injection day 1, cynos, n=2
Protocol: as §1, §2, §3

ANGPTL3 gene [6] = test: Example 9: serum HDL in cynomolgus monkeys; details: 2.0 mg/kg single SC injection day 1, cynos, n=3
Protocol: (§4) Additional ANGPTL3 RNAi agents were evaluated in cynomolgus monkeys. On day 1, cynomolgus macaque (Macaca fascicularis) primates (also referred to herein as “cynos”) were administered a single subcutaneous injection of 0.3 mL/kg (approximately 2-3 mL volume, depending on animal mass) containing 2.0 mg/kg of an ANGPTL3 RNAi agent, which included either AD05488, AD05743, AD05775, or AD05841, each formulated in saline. […] ANGPTL3 RNAi agents AD05488, AD05743, and AD05775 included nucleotide sequences designed to target position 304 of the ANGPTL3 gene. ANGPTL3 RNAi agent AD05841 included nucleotide sequences designed to target position 1035 of the ANGPTL3 gene.
(§5) Three (3) cynos in each group were tested (n=3). Blood samples were drawn and serum samples were analyzed on days −14 (predose), −7 (predose), 1 (pre-dose), 8, 15, 22, 29, and 35. Cynos were fasted overnight prior to each collection. ANGPTL3 protein levels in serum were measured by ELISA assay (R&D Systems), according to the manufacturer's recommendations. Triglycerides, total cholesterol, high-density lipoprotein (HDL), and low-density lipoprotein (LDL) in serum were measured on a Cobas® Integra 400 (Roche Diagnostics), according to the manufacturer's recommendations.
(§6) The ANGPTL3 protein levels, triglyceride levels, total cholesterol levels, HDL levels, and LDL levels for each animal were normalized. For normalization, the level of ANGPTL3 protein, triglyceride, HDL, and total cholesterol, respectively, for each animal at a time point, was divided by the average pre-treatment level of expression in that animal (in this case at days −14, −7, and 1) to determine the ratio of expression “normalized to pre-treatment.”

ANGPTL3 protein [7] = test: Example 9: serum ANGPTL3 protein by ELISA in cynomolgus monkeys; details: for Average ANGPTL3 Protein Normalized to Pre-Treatment: 2.0 mg/kg single SC injection day 1, cynos, n=3
Protocol: as §4, §5, §6

ANGPTL3 gene [8] = test: Example 9: serum LDL in cynomolgus monkeys; details: 2.0 mg/kg single SC injection day 1, cynos, n=3
Protocol: as §4, §5, §6

ANGPTL3 gene [9] = test: Example 9: serum triglycerides in cynomolgus monkeys; details: 2.0 mg/kg single SC injection day 1, cynos, n=3
Protocol: as §4, §5, §6

ANGPTL3 gene [10] = test: Example 9: serum total cholesterol in cynomolgus monkeys; details: 2.0 mg/kg single SC injection day 1, cynos, n=3
Protocol: as §4, §5, §6

## AD05577: RNAi agent duplex: antisense AM07350-AS, sense AM07002-SS (antisense mU*fG*mU*mUmGmAmAmUmUmAmAfUmGfUmCfCmAfUmGfG*mA; sense {NAG37}*[invAb]*mUmCmCmAmUmGmGmAfCfAfUmUmAmAmUmUmCmAmAmCmA*[invAb])
ANGPTL3 protein [1]; Day 8
  Avg ANGPTL3 protein normalized to pre-treatment: 0.503
ANGPTL3 protein [1]; Day 15
  Avg ANGPTL3 protein normalized to pre-treatment: 0.544
ANGPTL3 protein [1]; Day 22
  Avg ANGPTL3 protein normalized to pre-treatment: 0.754
ANGPTL3 protein [1]; Day 29
  Avg ANGPTL3 protein normalized to pre-treatment: 0.586
ANGPTL3 protein [1]; Day 36
  Avg ANGPTL3 protein normalized to pre-treatment: 0.479
ANGPTL3 protein [1]; all measured time points, single 3.0 mg/kg subcutaneous, cynomolgus monkeys
  reduction in ANGPTL3 protein compared to pre-treatment: reduction
ANGPTL3 gene [2]; Day 8
  Average HDL Normalized to Pre-Treatment: 0.855
ANGPTL3 gene [2]; Day 15
  Average HDL Normalized to Pre-Treatment: 0.788
ANGPTL3 gene [2]; Day 22
  Average HDL Normalized to Pre-Treatment: 0.818
ANGPTL3 gene [2]; Day 29
  Average HDL Normalized to Pre-Treatment: 0.857
ANGPTL3 gene [2]; Day 36
  Average HDL Normalized to Pre-Treatment: 0.852
ANGPTL3 gene [3]; Day 8
  Average LDL Normalized to Pre-Treatment: 0.951
ANGPTL3 gene [3]; Day 15
  Average LDL Normalized to Pre-Treatment: 1.091
ANGPTL3 gene [3]; Day 22
  Average LDL Normalized to Pre-Treatment: 0.860
ANGPTL3 gene [3]; Day 29
  Average LDL Normalized to Pre-Treatment: 0.991
ANGPTL3 gene [3]; Day 36
  Average LDL Normalized to Pre-Treatment: 0.925
ANGPTL3 gene [4]; Day 8
  Avg TG normalized to pre-treatment: 1.159
ANGPTL3 gene [4]; Day 15
  Avg TG normalized to pre-treatment: 0.977
ANGPTL3 gene [4]; Day 22
  Avg TG normalized to pre-treatment: 0.855
ANGPTL3 gene [4]; Day 29
  Avg TG normalized to pre-treatment: 0.886
ANGPTL3 gene [4]; Day 36
  Avg TG normalized to pre-treatment: 0.748
ANGPTL3 gene [5]; Day 8
  Avg Total Chol normalized to pre-treatment: 0.885
ANGPTL3 gene [5]; Day 15
  Avg Total Chol normalized to pre-treatment: 0.931
ANGPTL3 gene [5]; Day 22
  Avg Total Chol normalized to pre-treatment: 0.844
ANGPTL3 gene [5]; Day 29
  Avg Total Chol normalized to pre-treatment: 0.839
ANGPTL3 gene [5]; Day 36
  Avg Total Chol normalized to pre-treatment: 0.936

## AD05743: RNAi agent duplex: antisense AM07235-AS, sense AM07579-SS (antisense mU*fA*mC*fUmGfAmUfCmAfAmAfUmAfUmGfUmUfGmAfG*mC; sense {NAG37}*[invAb]*mGmCfUmCfAmAfCmAfUfAfUmUmUmGmAmUmCmAmGmUmA*[invAb])
ANGPTL3 gene [6]; Day 8
  Average HDL Normalized to Pre-Treatment: 0.849
ANGPTL3 gene [6]; Day 15
  Average HDL Normalized to Pre-Treatment: 0.797
ANGPTL3 gene [6]; Day 22
  Average HDL Normalized to Pre-Treatment: 0.666
ANGPTL3 gene [6]; Day 29
  Average HDL Normalized to Pre-Treatment: 0.757
ANGPTL3 gene [6]; Day 35
  Average HDL Normalized to Pre-Treatment: 0.677
ANGPTL3 protein [7]; Day 8
  Average ANGPTL3 Protein Normalized to Pre-Treatment: 0.349
ANGPTL3 protein [7]; Day 15
  Average ANGPTL3 Protein Normalized to Pre-Treatment: 0.316
ANGPTL3 protein [7]; Day 22
  Average ANGPTL3 Protein Normalized to Pre-Treatment: 0.322
ANGPTL3 protein [7]; Day 29
  Average ANGPTL3 Protein Normalized to Pre-Treatment: 0.381
ANGPTL3 protein [7]; Day 35
  Average ANGPTL3 Protein Normalized to Pre-Treatment: 0.346
ANGPTL3 protein [7]; each of the measured time points, single 2.0 mg/kg subcutaneous, cynomolgus monkeys
  reduction in ANGPTL3 protein compared to pre-treatment: reduction
ANGPTL3 gene [8]; Day 8
  Average LDL Normalized to Pre-Treatment: 1.055
ANGPTL3 gene [8]; Day 15
  Average LDL Normalized to Pre-Treatment: 0.825
ANGPTL3 gene [8]; Day 22
  Average LDL Normalized to Pre-Treatment: 0.986
ANGPTL3 gene [8]; Day 29
  Average LDL Normalized to Pre-Treatment: 0.941
ANGPTL3 gene [8]; Day 35
  Average LDL Normalized to Pre-Treatment: 0.911
ANGPTL3 gene [9]; Day 8
  Average Triglycerides Normalized to Pre-Treatment: 0.646
ANGPTL3 gene [9]; Day 15
  Average Triglycerides Normalized to Pre-Treatment: 0.708
ANGPTL3 gene [9]; Day 22
  Average Triglycerides Normalized to Pre-Treatment: 0.458
ANGPTL3 gene [9]; Day 29
  Average Triglycerides Normalized to Pre-Treatment: 0.479
ANGPTL3 gene [9]; Day 35
  Average Triglycerides Normalized to Pre-Treatment: 0.521
ANGPTL3 gene [10]; Day 8
  Average Total Cholesterol Normalized to Pre-Treatment: 0.925
ANGPTL3 gene [10]; Day 15
  Average Total Cholesterol Normalized to Pre-Treatment: 0.758
ANGPTL3 gene [10]; Day 22
  Average Total Cholesterol Normalized to Pre-Treatment: 0.768
ANGPTL3 gene [10]; Day 29
  Average Total Cholesterol Normalized to Pre-Treatment: 0.807
ANGPTL3 gene [10]; Day 35
  Average Total Cholesterol Normalized to Pre-Treatment: 0.752
